The values below come from patent US6977180B2, “Biosensor” (Duke University, priority 2001, dated 2005).

Experiment [1] is described as follows: electrochemical (ac voltammetry) ligand binding of protein-modified gold electrode, glucose. The settings on record: gold disk electrode, 0.1 kHz, read-out: eKd(glucose), dissociation constant of the assembly, determined electrochemically. The method, then:
FIGS. 4A–4D. Ligand-mediated electrochemical responses of four electroactive biomolecular assemblies. Inserts show the current responses observed at different ligand concentrations, measured by scanning the potential at a constant frequency. FIG. 4A. G174C-MBP (1 kHz; ^eKd(maltose)=4 μM; ^fKd(maltose)=1 μM), FIG. 4B. L255C-GBP (0.1 kHz; ^eKd(glucose)=2.0 μM; ^fKd(glucose)=0.4 μM), FIG. 4C. G174C-eZBP, a redesigned variant of MBP that binds zinc (1 kHz; ^eKd (zinc)=10 μM; ^fKd(zinc)=3 μM), FIG. 4D. […]
Electrochemistry. […] Ac current baselines were calculated by linear extrapolation between equidistant potentials from the observed midpoint reduction potential (˜220 mV), as reported previously (Creager et al, Anal. Chem. 70:4257–4263 (1998)). […]

Experiment [2] is described as follows: solution ligand binding by intrinsic tryptophan fluorescence of the conjugates, glucose. To be noted: read-out: fKd(glucose), dissociation constant of the protein free in solution. The procedure:
FIGS. 4A–4D. Ligand-mediated electrochemical responses of four electroactive biomolecular assemblies. Inserts show the current responses observed at different ligand concentrations, measured by scanning the potential at a constant frequency. FIG. 4A. G174C-MBP (1 kHz; ^eKd(maltose)=4 μM; ^fKd(maltose)=1 μM), FIG. 4B. L255C-GBP (0.1 kHz; ^eKd(glucose)=2.0 μM; ^fKd(glucose)=0.4 μM), FIG. 4C. G174C-eZBP, a redesigned variant of MBP that binds zinc (1 kHz; ^eKd (zinc)=10 μM; ^fKd(zinc)=3 μM), FIG. 4D. E163C-QBP (0.16 kHz; ^eKd(glutamine)=1.0 μM; ^fKd(glutamine)=0.2 μM. Two binding constants are reported: ^eKd is dissociation constant of the assembly, determined electrochemically; ^fKd is the dissocation constant of the protein free in solution, determined by measuring changes in the intrinsic tryptophan fluorescence of the conjugates. (For every protein presented, the ligand-binding affinities determined electrochemically using a disk gold electrode are 2–5 fold weaker than those in solution. However, if a gold microelectrode prepared by flame annealing a gold wire (Creager et al, Anal. Chem. 70:4257 (1998)) is used instead of a gold disk electrode, the electrochemically determined affinities are similar to the solution affinities.
Protein purification and labeling. […]

For “L255C-GBP: glucose-binding protein mutant L255C carrying the Ru(II) redox reporter”, the Kd in experiment [1] was determined as 2000 nM; in experiment [2], 400 nM.
